What follows are molecules tested against T1, Recombinant human CBP containing the bromodomain (CBP-BD (1043-1159)) (Homo sapiens, UniProt Q92793) (assay: CBP Alphascreen binding assay). Settings: read-out: CREBBP (CBP) IC50.
T1 construct: Recombinant human CBP bromodomain (CBP-BD (1043-1159)); made in house; host or cells: E. coli BL21-CodonPlus (DE3), modified pET vector
In short: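 Buffer: 50 mM HEPES pH 7.5, 50 mM NaCl, 0.01% BSA, 0.01% Triton X-100, 2 mM DTT. The signal was normalised to plate controls and fitted with a four-parameter curve to give IC50.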

T1 sequence (Q92793 1081-1197): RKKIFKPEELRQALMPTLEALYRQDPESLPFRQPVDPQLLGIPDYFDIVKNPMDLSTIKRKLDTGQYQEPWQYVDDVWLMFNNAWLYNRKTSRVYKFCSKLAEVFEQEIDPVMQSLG

**Q.** How did the IC50 turn out when `Cc1noc(C)c1-c1cnc2c(c1)c(-c1ccc(C(=O)O)cc1)cn2[C@@H](C)c1ccccn1` [P-0001, (S)-4-(5-(3,5-dimethylisoxazol-4-yl)-1-(1-(pyridin-2-yl)ethyl)-1H-pyrrolo[2,3-b]pyridin-3-yl)benzoic acid] was run?
**A.** 0.0001 to 1 µM

**Q.** How did the IC50 turn out when `Cc1noc(C)c1-c1cnc2c(c1)c(-c1ccc(C(=O)O)cc1)cn2C(c1ccccn1)C1CCCC1` (stereo not shown) [P-0002, 4-(1-(cyclopentyl(pyridin-2-yl)methyl)-5-(3,5-dimethylisoxazol-4-yl)-1H-pyrrolo[2,3-b]pyridin-3-yl)benzoic acid] was run?
**A.** 0.0001 to 1 µM

**Q.** For `Cc1noc(C)c1-c1cnc2c(c1)c(-c1ccccc1)cn2C(c1ccccn1)C1CCCC1` (stereo not shown) [P-0003, 4-(1-(cyclopentyl(pyridin-2-yl)methyl)-3-phenyl-1H-pyrrolo[2,3-b]pyridin-5-yl)-3,5-dimethylisoxazole], which IC50 is on record?
**A.** 8 to 1000 µM

**Q.** With `Cc1noc(C)c1-c1cnc2c(c1)c(-c1ccc(C(=O)O)cc1)cn2C(c1ccccn1)C1CCCCC1` (stereo not shown) [P-0004, 4-(1-(cyclohexyl(pyridin-2-yl)methyl)-5-(3,5-dimethylisoxazol-4-yl)-1H-pyrrolo[2,3-b]pyridin-3-yl)benzoic acid] as the molecule, how does the IC50 read?
**A.** 0.0001 to 1 µM

**Q.** For `COC(=O)c1ccc(-c2cn(S(=O)(=O)c3ccc(C)cc3)c3ncc(-c4c(C)noc4C)cc23)cc1` [P-0005, methyl 4-(5-(3,5-dimethylisoxazol-4-yl)-1-tosyl-1H-pyrrolo[2,3-b]pyridin-3-yl)benzoate], which IC50 is on record?
**A.** 8 to 1000 µM

**Q.** With `Cc1noc(C)c1-c1cnc2c(c1)c(-c1ccnc(C(=O)O)c1)cn2S(=O)(=O)c1ccccc1` [P-0055, 4-(5-(3,5-dimethylisoxazol-4-yl)-1-(phenylsulfonyl)-1H-pyrrolo[2,3-b]pyridin-3-yl)picolinic acid] as the molecule, how does the IC50 read?
**A.** 0.0001 to 1 µM

**Q.** `COc1cccc(Cn2cc(-c3cccc(C(=O)O)c3)c3cc(-c4c(C)noc4C)cnc32)c1` [P-0056, 3-(5-(3,5-dimethylisoxazol-4-yl)-1-(3-methoxybenzyl)-1H-pyrrolo[2,3-]pyridin-3-yl)benzoic acid] was tested. Which IC50 did it give?
**A.** 0.0001 to 1 µM

**Q.** `COc1cccc(Cn2cc(-c3ccnc(C(=O)O)c3)c3cc(-c4c(C)noc4C)cnc32)c1` [P-0057, 4-(5-(3,5-dimethylisoxazol-4-yl)-1-(3-methoxybenzyl)-1H-pyrrolo[2,3-b]pyridin-3-yl)picolinic acid] was tested. Which IC50 did it give?
**A.** 0.0001 to 1 µM

**Q.** Which IC50 does the source give for `Cc1noc(C)c1-c1cnc2c(c1)c(-c1cccc(C(=O)O)c1)cn2C(C1CC1)C1CC1` [P-0058, 3-(1-(dicyclopropylmethyl)-5-(3,5-dimethylisoxazol-4-yl)-1H-pyrrolo[2,3-b]pyridin-3-yl)benzoic acid] here?
**A.** 0.0001 to 1 µM

**Q.** Which IC50 does the source give for `Cc1noc(C)c1-c1cnc2c(c1)c(-c1cccc(C(=O)O)c1)cn2Cc1cccc(OC(F)(F)F)c1` [P-0059, 3-(5-(3,5-dimethylisoxazol-4-yl)-1-(3-(trifluoromethoxy)benzyl)-1H-pyrrolo[2,3-b]pyridin-3-yl)benzoic acid] here?
**A.** 0.0001 to 1 µM

**Q.** For `Cc1noc(C)c1-c1cnc2c(c1)c(-c1cccc(C(=O)O)c1)cn2Cc1cccc(F)c1` [P-0060, 3-(5-(3,5-dimethylisoxazol-4-yl)-1-(3-fluorobenzyl)-1H-pyrrolo[2,3-b]pyridin-3-yl)benzoic acid], which IC50 is on record?
**A.** 0.0001 to 1 µM

**Q.** Which IC50 does the source give for `Cc1noc(C)c1-c1cnc2c(c1)c(-c1cccc(C(=O)O)c1)cn2Cc1cccc(Cl)c1` [P-0061, 3-(1-(3-chlorobenzyl)-5-(3,5-dimethylisoxazol-4-yl)-1H-pyrrolo[2,3-b]pyridin-3-yl)benzoic acid] here?
**A.** 0.0001 to 1 µM

**Q.** How did the IC50 turn out when `Cc1cccc(Cn2cc(-c3cccc(C(=O)O)c3)c3cc(-c4c(C)noc4C)cnc32)c1` [P-0062, 3-(5-(3,5-dimethylisoxazol-4-yl)-1-(3-methylbenzyl)-1H-pyrrolo[2,3-b]pyridin-3-yl)benzoic acid] was run?
**A.** 0.0001 to 1 µM

**Q.** For `Cc1noc(C)c1-c1cnc2c(c1)c(-c1cccc(C(=O)O)c1)cn2Cc1cccc(C(F)(F)F)c1` [P-0063, 3-(5-(3,5-dimethylisoxazol-4-yl)-1-(3-(trifluoromethyl)benzyl)-1H-pyrrolo[2,3-b]pyridin-3-yl)benzoic acid], which IC50 is on record?
**A.** 0.0001 to 1 µM

**Q.** Which IC50 does the source give for `Cc1noc(C)c1-c1cnc2c(CC3CCC3)cn(-c3ccc(C(=O)O)cc3OC(F)F)c2c1` [P-0064, 4-(3-(cyclobutylmethyl)-6-(3,5-dimethylisoxazol-4-yl)-1H-pyrrolo[3,2-b]pyridin-1-yl)-3-(difluoromethoxy)benzoic acid] here?
**A.** 0.0001 to 1 µM

**Q.** Which IC50 does the source give for `Cc1noc(C)c1-c1cnc2c(CC3CC3)cn(-c3ccnc(C(=O)O)c3)c2c1` [P-0065, 4-(3-(cyclopropylmethyl)-6-(3,5-dimethylisoxazol-4-yl)-1H-pyrrolo[3,2-b]pyridin-1-yl)picolinic acid] here?
**A.** 0.0001 to 1 µM

**Q.** How did the IC50 turn out when `Cc1noc(C)c1-c1cnc2c(CC3CCC3)cn(-c3ccc(C(=O)O)cc3OC(F)(F)F)c2c1` [P-0066, 4-(3-(cyclobutylmethyl)-6-(3,5-dimethylisoxazol-4-yl)-1H-pyrrolo[3,2-b]pyridin-1-yl)-3-(trifluoromethoxy)benzoic acid] was run?
**A.** 0.0001 to 1 µM

**Q.** Which IC50 does the source give for `COc1cc(C(=O)O)cc(OC)c1-n1cc(CC2CCC2)c2ncc(-c3c(C)noc3C)cc21` [P-0067, 4-(3-(cyclobutylmethyl)-6-(3,5-dimethylisoxazol-4-yl)-1H-pyrrolo[3,2-b]pyridin-1-yl)-3,5-dimethoxybenzoic acid] here?
**A.** 0.0001 to 1 µM

**Q.** Which IC50 does the source give for `Cc1noc(C)c1-c1cnc2c(CC3CCC3)cn(-c3ccc(S(C)(=O)=O)c(F)c3)c2c1` [P-0068, 4-(3-(cyclobutylmethyl)-1-(3-fluoro-4-(methylsulfonyl)phenyl)-1H-pyrrolo[3,2-b]pyridin-6-yl)-3,5-dimethylisoxazole] here?
**A.** 0.0001 to 1 µM

**Q.** How did the IC50 turn out when `Cc1noc(C)c1-c1cnc2c(c1)c(C#CC(=O)O)cn2Cc1ccccc1` [P-0069, 3-(1-benzyl-5-(3,5-dimethylisoxazol-4-yl)-1H-pyrrolo[2,3-b]pyridin-3-yl)propiolic acid] was run?
**A.** 0.0001 to 1 µM

**Q.** Which IC50 does the source give for `Cc1noc(C)c1-c1cnc2c(c1)c(-c1ccc(C(=O)O)cc1OC(F)(F)F)cn2[C@@H](C)c1ccccn1` [P-0070, (S)-4-(5-(3,5-dimethylisoxazol-4-yl)-1-(1-(pyridin-2-yl)ethyl)-1H-pyrrolo[2,3-b]pyridin-3-yl)-3-(trifluoromethoxy)benzoic acid] here?
**A.** 0.0001 to 1 µM

**Q.** With `Cc1noc(C)c1-c1cnc2c(c1)c(-c1ccc(C(=O)O)cc1OC(F)F)cn2[C@@H](C)c1ccccn1` [P-0071, (S)-3-(difluoromethoxy)-4-(5-(3,5-dimethylisoxazol-4-yl)-1-(1-(pyridin-2-yl)ethyl)-1H-pyrrolo[2,3-b]pyridin-3-yl)benzoic acid] as the molecule, how does the IC50 read?
**A.** 0.0001 to 1 µM

**Q.** How did the IC50 turn out when `Cc1noc(C)c1-c1cnc2c(c1)c(-c1cccc(C(=O)O)c1)cn2C(C1CCC1)C1CCC1` [P-0072, 3-(1-(dicyclobutylmethyl)-5-(3,5-dimethylisoxazol-4-yl)-1H-pyrrolo[2,3-b]pyridin-3-yl)benzoic acid] was run?
**A.** 0.0001 to 1 µM

**Q.** `Cc1noc(C)c1-c1cnc2c(c1)c(-c1cccc(C(=O)O)c1)cn2C(c1ccccn1)C1CCC1` (stereo not shown) [P-0073, 3-(1-(cyclobutyl(pyridin-2-yl)methyl)-5-(3,5-dimethylisoxazol-4-yl)-1H-pyrrolo[2,3-b]pyridin-3-yl)benzoic acid] was tested. Which IC50 did it give?
**A.** 0.0001 to 1 µM

**Q.** Which IC50 does the source give for `Cc1noc(C)c1-c1cnc2c(CC3CCC3)cn(-c3c(Cl)cc(C(=O)O)cc3Cl)c2c1` [P-0074, 3,5-dichloro-4-(3-(cyclobutylmethyl)-6-(3,5-dimethylisoxazol-4-yl)-1H-pyrrolo[3,2-b]pyridin-1-yl)benzoic acid] here?
**A.** 0.0001 to 1 µM

**Q.** Which IC50 does the source give for `Cc1cc(C(=O)O)cnc1-n1cc(CC2CCC2)c2ncc(-c3c(C)noc3C)cc21` [P-0075, 6-(3-(cyclobutylmethyl)-6-(3,5-dimethylisoxazol-4-yl)-1H-pyrrolo[3,2-b]pyridin-1-yl)-5-methylnicotinic acid] here?
**A.** 0.0001 to 1 µM

**Q.** For `Cc1noc(C)c1-c1cnc2c(CC3CCC3)cn(-c3ccc(C#N)cc3)c2c1` [P-0076, 4-(3-(cyclobutylmethyl)-6-(3,5-dimethylisoxazol-4-yl)-1H-pyrrolo[3,2-b]pyridin-1-yl)benzonitrile], which IC50 is on record?
**A.** 1 to 8 µM

**Q.** `Cc1noc(C)c1-c1cnc2c(CC3CCC3)cn(-c3ccnc(C#N)c3)c2c1` [P-0077, 4-(3-(cyclobutylmethyl)-6-(3,5-dimethylisoxazol-4-yl)-1H-pyrrolo[3,2-b]pyridin-1-yl)picolinonitrile] was tested. Which IC50 did it give?
**A.** 0.0001 to 1 µM

**Q.** With `Cc1noc(C)c1-c1cnc2c(c1)c(-c1cccc(C(=O)NC#N)c1)cn2Cc1ccccc1` [P-0078, 3-(1-benzyl-5-(3,5-dimethylisoxazol-4-yl)-1H-pyrrolo[2,3-b]pyridin-3-yl)-N-cyanobenzamide] as the molecule, how does the IC50 read?
**A.** 1 to 8 µM

**Q.** How did the IC50 turn out when `Cc1noc(C)c1-c1cnc2c(c1)c(-c1cccc(C(=O)NO)c1)cn2Cc1ccccc1` [P-0079, 3-(1-benzyl-5-(3,5-dimethylisoxazol-4-yl)-1H-pyrrolo[2,3-b]pyridin-3-yl)-N-hydroxybenzamide] was run?
**A.** 0.0001 to 1 µM

**Q.** Which IC50 does the source give for `Cc1noc(C)c1-c1cnc2c(c1)c(-c1ccc(C(=O)O)cc1)cn2C(C)c1ccccn1` (stereo not shown) [P-0080, 4-(5-(3,5-dimethylisoxazol-4-yl)-1-(1-(pyridin-2-yl)ethyl)-1H-pyrrolo[2,3-b]pyridin-3-yl)benzoic acid] here?
**A.** 1 to 8 µM

**Q.** `Cc1noc(C)c1-c1cnc2c(c1)c(-c1cccc(S(N)(=O)=O)c1)cn2Cc1ccccc1` [P-0081, 3-(1-benzyl-5-(3,5-dimethylisoxazol-4-yl)-1H-pyrrolo[2,3-b]pyridin-3-yl)benzenesulfonamide] was tested. Which IC50 did it give?
**A.** 1 to 8 µM

**Q.** How did the IC50 turn out when `CNS(=O)(=O)c1cccc(-c2cn(Cc3ccccc3)c3ncc(-c4c(C)noc4C)cc23)c1` [P-0082, 3-(1-benzyl-5-(3,5-dimethylisoxazol-4-yl)-1H-pyrrolo[2,3-b]pyridin-3-yl)-N-methylbenzenesulfonamide] was run?
**A.** 8 to 1000 µM

**Q.** With `Cc1noc(C)c1-c1cnc2c(c1)c(-c1cccc(S(=O)(=O)NC3CC3)c1)cn2Cc1ccccc1` [P-0083, 3-(1-benzyl-5-(3,5-dimethylisoxazol-4-yl)-1H-pyrrolo[2,3-b]pyridin-3-yl)-N-cyclopropylbenzenesulfonamide] as the molecule, how does the IC50 read?
**A.** 1 to 8 µM

— patent US11446287B2, “Compounds and methods for EP300 or CBP modulation and indications therefor” (Opna Immuno-Oncology SA, priority 2019, dated 2022)
